Measurements as given in patent publication US10934310B2, “Inhibitors of Bruton's tyrosine kinase and method of their use” (JANSSEN PHARMACEUTICA NV, priority 2015, dated 2021).

What follows are molecules tested against unphosphorylated-BTK kinase domain (UP-BTK), GST-tagged human BTK (389-659aa) (Homo sapiens (Human), UniProt Q06187) (assay: BTK Kinase Lanthascreen Binding Assay). Settings: Lanthascreen binding, 60 minutes incubation; pIC50 = negative log of the IC50 in molar.
Experimental: BTK Kinase Lanthascreen Binding Assay:
A BTK kinase lanthascreen binding assay monitors compound binding to unphosphorylated-BTK kinase domain (UP-BTK), by competing with a fluorescent labeled tracer. […] Data were analyzed using Xlfit™ version 5.3 from ID Business Solutions (Guildford), Microsoft Excel add-in. pIC50 refers to the negative log of the IC50 in molar.

Sequence of unphosphorylated-BTK kinase domain (UP-BTK), GST-tagged human BTK (389-659aa) (Q06187 389-659): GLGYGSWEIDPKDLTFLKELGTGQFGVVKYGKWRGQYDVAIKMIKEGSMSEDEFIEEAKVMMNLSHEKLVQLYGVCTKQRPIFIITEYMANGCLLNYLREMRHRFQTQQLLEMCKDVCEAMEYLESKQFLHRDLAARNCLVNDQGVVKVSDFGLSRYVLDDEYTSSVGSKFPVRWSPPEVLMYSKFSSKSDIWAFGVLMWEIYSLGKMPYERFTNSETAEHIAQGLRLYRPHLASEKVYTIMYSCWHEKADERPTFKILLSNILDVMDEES

BTK_I_binding pIC50 | SMILES
7.57 | C=CC(=O)N[C@@H]1CCC[C@H]1NC(=O)c1sc2nccc3c2c1NC(=O)N3c1cnc(Oc2ccccc2)cn1 [Example 311, N-((1R,2R)-2-Acrylamidocyclopentyl)-4-oxo-5-(5-phenoxypyrazin-2-yl)-4,5-dihydro-3H-1-thia-3,5,8-triazaacenaphthylene-2-carboxamide]
6.38 | Cc1cc(CC(C)C)ncc1N1C(=O)Nc2c(C(=O)N[C@@H]3CCCC[C@@H]3N)sc3nccc1c23 (single isomer, unassigned) [Example 335, N-((1R,2S)-2-Aminocyclohexyl)-5-(*S)-(6-isobutyl-4-methylpyridin-3-yl)-4-oxo-4,5-dihydro-3H-1-thia-3,5,8-triazaacenaphthylene-2-carboxamide]
6.87 | C=CC(=O)N[C@H]1CCC[C@H]1NC(=O)c1sc2nccc3c2c1NC(=O)N3c1cnc(Oc2ccc(C)nc2)cc1C [Example 487, N-((1R,2S)-2-Acrylamidocyclopentyl)-5-(4-methyl-6-((6-methylpyridin-3-yl)oxy)pyridin-3-yl)-4-oxo-4,5-dihydro-3H-1-thia-3,5,8-triazaacenaphthylene-2-carboxamide]
8.23 | C=CC(=O)N[C@H]1CCC[C@H]1NC(=O)c1sc2nccc3c2c1NC(=O)N3c1cnc(OC2CCCC2)cc1C (single isomer, unassigned) [Example 371, N-((1R,2S)-2-Acrylamidocyclopentyl)-5-(*S)-(6-(cyclopentyloxy)-4-methylpyridin-3-yl)-4-oxo-4,5-dihydro-3H-1-thia-3,5,8-triazaacenaphthylene-2-carboxamide]
6.38 | CCC(=O)N[C@H]1CCC[C@H](NC(=O)c2sc3nccc4c3c2NC(=O)N4c2cnc(Oc3ccccc3)cc2C)C1 (single isomer, unassigned) [Example 402, 5-(*S)-(4-Methyl-6-phenoxypyridin-3-yl)-4-oxo-N-((1S,3S)-3-propionamidocyclohexyl)-4,5-dihydro-3H-1-thia-3,5,8-triazaacenaphthylene-2-carboxamide]

Same assay, conditions: compound, 50 nM Tracer 236, 2 nM anti-GST antibody, 60 minutes; pIC50 = negative log of the IC50 in molar

BTK_I_binding pIC50 | SMILES
8.04 | CNCC(=O)N[C@@H]1CCC[C@H]1NC(=O)c1sc2nccc3c2c1NC(=O)N3c1ccc(Oc2ccccc2)cc1C (single isomer, unassigned) [Example 112, 5-(*S)-(2-Methyl-4-phenoxyphenyl)-N-((1R,2R)-2-(2-(methylamino)acetamido)cyclopentyl)-4-oxo-4,5-dihydro-3H-1-thia-3,5,8-triazaacenaphthylene-2-carboxamide]
7.30 | C=CC(=O)N[C@@H]1CCCC[C@H]1NC(=O)c1sc2nccc3c2c1NC(=O)N3c1cnc(Oc2ccccc2)cc1C (single isomer, unassigned) [Example 213, N-((1R,2R)-2-Acrylamidocyclohexyl)-5-(*S)-(4-methyl-6-phenoxypyridin-3-yl)-4-oxo-4,5-dihydro-3H-1-thia-3,5,8-triazaacenaphthylene-2-carboxamide]
6.68 | Cc1cc(Oc2ccccc2)ccc1N1C(=O)Nc2c(C(=O)N[C@@H]3CCCC[C@H]3N)sc3nccc1c23 [Example 38, N-((1R,2R)-2-Aminocyclohexyl)-5-(2-methyl-4-phenoxyphenyl)-4-oxo-4,5-dihydro-3H-1-thia-3,5,8-triazaacenaphthylene-2-carboxamide]
7.03 | Cc1cc(Oc2ccccc2)ccc1N1C(=O)Nc2c(C(=O)NC3CCCC3)sc3nccc1c23 [Example 81, N-Cyclopentyl-5-(*S)-(2-methyl-4-phenoxyphenyl)-4-oxo-4,5-dihydro-3H-1-thia-3,5,8-triazaacenaphthylene-2-carboxamide]
8.13 | C=CC(=O)N[C@H]1CCC[C@H]1NC(=O)c1sc2nccc3c2c1NC(=O)N3c1cnc(Oc2ccccc2)nc1C (single isomer, unassigned) [Example 166, N-((1R,2S)-2-Acrylamidocyclopentyl)-5-(*S)-(4-methyl-2-phenoxypyrimidin-5-yl)-4-oxo-4,5-dihydro-3H-1-thia-3,5,8-triazaacenaphthylene-2-carboxamide]
7.07 | Cc1cc(Oc2ccccc2)ccc1N1C(=O)Nc2c(C(=O)N[C@H]3CC[C@@H](O)C3)sc3nccc1c23 [Example 74, N-((1S,3R)-3-Hydroxycyclopentyl)-5-(2-methyl-4-phenoxyphenyl)-4-oxo-4,5-dihydro-3H-1-thia-3,5,8-triazaacenaphthylene-2-carboxamide]
6.98 | CC(=O)N[C@H]1CCCC[C@H]1NC(=O)c1sc2nccc3c2c1NC(=O)N3c1ccc(Oc2ccccc2)cc1C [Example 33, N-((1R,2S)-2-Acetamidocyclohexyl)-5-(2-methyl-4-phenoxyphenyl)-4-oxo-4,5-dihydro-3H-1-thia-3,5,8-triazaacenaphthylene-2-carboxamide]
7.78 | C=CC(=O)N[C@@H]1CC[C@H](NC(=O)c2sc3nccc4c3c2NC(=O)N4c2ccc(Oc3ccccc3)cc2C)C1 [Example 68, N-((1S,3R)-3-acrylamidocyclopentyl)-5-(2-methyl-4-phenoxyphenyl)-4-oxo-4,5-dihydro-3H-1-thia-3,5,8-triazaacenaphthylene-2-carboxamide]
8.10 | C=CC(=O)N[C@H]1CCCC[C@H]1NC(=O)c1sc2nccc3c2c1NC(=O)N3c1ccnc(-c2ccccc2)c1 [Example 168, N-((1R,2S)-2-Acrylamidocyclohexyl)-4-oxo-5-(2-phenylpyridin-4-yl)-4,5-dihydro-3H-1-thia-3,5,8-triazaacenaphthylene-2-carboxamide]
8.26 | C=CC(=O)N[C@H]1CCC[C@H]1NC(=O)c1sc2nccc3c2c1NC(=O)N3c1ccnc(-c2ccccc2)c1 [Example 169, N-((1R,2S)-2-Acrylamidocyclopentyl)-4-oxo-5-(2-phenylpyridin-4-yl)-4,5-dihydro-3H-1-thia-3,5,8-triazaacenaphthylene-2-carboxamide]
6.99 | CCC(=O)N[C@H]1CC[C@@H](NC(=O)c2sc3nccc4c3c2NC(=O)N4c2ccc(Oc3ccccc3)cc2C)CC1 (single isomer, unassigned) [Example 93, 5-(*R)-(2-Methyl-4-phenoxyphenyl)-4-oxo-N-((1S,4S)-4-propionamidocyclohexyl)-4,5-dihydro-3H-1-thia-3,5,8-triazaacenaphthylene-2-carboxamide]
6.48 | Cc1nc(Oc2ccccc2)ncc1N1C(=O)Nc2c(C(=O)N[C@@H]3CCC[C@H]3N)sc3nccc1c23 (single isomer, unassigned) [Example 256, N-((1R,2R)-2-Aminocyclopentyl)-5-(*S)-(4-methyl-2-phenoxypyrimidin-5-yl)-4-oxo-4,5-dihydro-3H-1-thia-3,5,8-triazaacenaphthylene-2-carboxamide]
7.48 | Cc1cc(Oc2ccccc2)ccc1N1C(=O)Nc2c(C(=O)N[C@@H]3CCC[C@@H]3O)sc3nccc1c23 [Example 6, N-((1R,2S)-2-Hydroxycyclopentyl)-5-(2-methyl-4-phenoxyphenyl)-4-oxo-4,5-dihydro-3H-1-thia-3,5,8-triazaacenaphthylene-2-carboxamide]
7.30 | Cc1cc(Oc2ccccc2)ccc1N1C(=O)Nc2c(C(=O)N[C@H]3CC[C@@H](NC(=O)CN)C3)sc3nccc1c23 [Example 75, N-((1S,3R)-3-(2-Aminoacetamido)cyclopentyl)-5-(2-methyl-4-phenoxyphenyl)-4-oxo-4,5-dihydro-3H-1-thia-3,5,8-triazaacenaphthylene-2-carboxamide]
7.44 | Cc1cc(Oc2ccccc2)ccc1N1C(=O)Nc2c(C(=O)N[C@@H]3CC[C@@H](NC(=O)CN)C3)sc3nccc1c23 [Example 235, N-((1R,3R)-3-(2-Aminoacetamido)cyclopentyl)-5-(2-methyl-4-phenoxyphenyl)-4-oxo-4,5-dihydro-3H-1-thia-3,5,8-triazaacenaphthylene-2-carboxamide]
7.17 | Cc1cc(Oc2ccccc2)ccc1N1C(=O)Nc2c(C(=O)N[C@H]3CCC[C@@H]3NC(=O)CN)sc3nccc1c23 (single isomer, unassigned) [Example 130, N-((1S,2S)-2-(2-Aminoacetamido)cyclopentyl)-5-(*S)-(2-methyl-4-phenoxyphenyl)-4-oxo-4,5-dihydro-3H-1-thia-3,5,8-triazaacenaphthylene-2-carboxamide]

SMILES | BTK_I_binding pIC50
Cc1cc(Oc2ccccc2)ccc1N1C(=O)Nc2c(C(=O)N[C@H]3CC[C@@H](O)CC3)sc3nccc1c23 (single isomer, unassigned) [Example 83, N-((1S,4S)-4-Hydroxycyclohexyl)-5-(*S)-(2-methyl-4-phenoxyphenyl)-4-oxo-4,5-dihydro-3H-1-thia-3,5,8-triazaacenaphthylene-2-carboxamide] | 7.60

Same assay, conditions: read-out: BTK_I_binding pIC50 (converted)

IC50 [nM] | SMILES
> 1000 | CCC(=O)N[C@@H]1CCC[C@H]1NC(=O)c1sc2nccc3c2c1NC(=O)N3c1ccc(Oc2ccccc2)nc1C (single isomer, unassigned) [Example 353, 5-(*S)-(2-Methyl-6-phenoxypyridin-3-yl)-4-oxo-N-((1R,2R)-2-propionamidocyclopentyl)-4,5-dihydro-3H-1-thia-3,5,8-triazaacenaphthylene-2-carboxamide]
> 1000 | CCC(=O)N[C@@H]1CCC[C@@H]1NC(=O)c1sc2nccc3c2c1NC(=O)N3c1ccnc(-c2ccccc2)c1 [Example 159, 4-Oxo-5-(2-phenylpyridin-4-yl)-N-((1S,2R)-2-propionamidocyclopentyl)-4,5-dihydro-3H-1-thia-3,5,8-triazaacenaphthylene-2-carboxamide]
> 1000 | Cc1nc(Oc2ccccc2)ccc1N1C(=O)Nc2c(C(=O)N[C@@H]3CCCC[C@H]3N)sc3nccc1c23 (single isomer, unassigned) [Example 350, N-((1R,2R)-2-Aminocyclohexyl)-5-(*S)-(2-methyl-6-phenoxypyridin-3-yl)-4-oxo-4,5-dihydro-3H-1-thia-3,5,8-triazaacenaphthylene-2-carboxamide]
